Source: patent US8894993B2, “Mitochondria-targeted antioxidants” (Natreon Inc., priority 2006, dated 2014)

Legend:
[1] = Stability of reduced CoQ10 (CoQH2) by 3,8-(OH)2-DBP at different pH, HPLC; assay type: physicochemical
[2] = Inhibition of CoQ-CoQH2 aberrant metabolite formation during red-ox recycling, HPLC; assay type: physicochemical; conditions: in vitro
Procedure: Methanolic solution of coenzyme Q10 (1 mg/ml) was reduced by NaBH4 to pH 8 when the yellow solution became colorless. About 1 mg of 3,8-(OH)2-DBP was added to the solution and the mixture was analyzed by HPLC at different time intervals (0-80 min). A control CoQ10, without 3,8-(OH)2-DBP, was prepared similarly and analyzed at different time intervals (0-80 min).
Column—NovaPak RP C18 [250×4 mm]
(§1) Mobile phase—Methanol:Acetonitrile:Ethanol 30:30:40
Detection—PDA 275 nm for CoQ10
Reduced CoQ10 (CoQH2) has a tendency to rapidly autoxidize in the presence of air. […] The aberrant metabolites increased rapidly with time (Table 10).

[3] = Stability of reduced CoQ10 (CoQH2) by 3,8-(OH)2-DBP at different pH, HPLC; assay type: physicochemical; conditions: for Reduced CoQ10 remaining in control: no DBP
Procedure: Two mg of solid CoQ10 (SRL, India), in an airtight vial was dissolved in 1 ml of methanol. After thorough vortexing, 5 mg of solid NaBH4 (Merck India) was added, 1 mg at a time, to the yellow colored solution of CoQ10 in methanol and kept in an ice-bath for a few minutes. The vial was kept shut to avoid contact with air but opened occasionally to avoid generation of pressure inside due to accumulation of hydrogen. After the reduction reaction, a clear colorless solution was obtained to which methanolic solution of 3,8-(OH)2-DBP with a concentration of 1 mg/ml (>90% pure) was added in a ratio of 1:1 to obtain a final concentration of the mixture—reduced CoQ10 […] DBP 0.5 mg/ml. This solution was analyzed by HPLC for reduced CoQ10 content at different time intervals. A control was prepared in similar fashion except that no DBP was added. The pH of the solutions was determined to be 8 using pH paper. To obtain solutions of reduced CoQ10 with pH 7 and pH 3, aliquots of concentrated HCl were added to the methanolic solution of reduced CoQ10 at pH 8. Afterwards, a solution of DBP was added and analysis by HPLC at different time intervals was conducted, as before.
as §1
Detection—PDA 290 nm for reduced CoQ10

[4] = DBP products in mice liver mitochondria before and after DBPs treatment, HPTLC; assay type: in vivo, Swiss Albino mice; conditions: one hour after i.p. 4:1 mixture of 3,8-(OH)2-DBP and 3-OH-DBP 20 mg/Kg
Procedure: Mitochondria were isolated from heart and liver of chicken, goat and mice following a published procedure (Liu Y, Deng F, Zhao R and Qu S, Chemosphere, 40(8):851-854, 2000). […] The tissue was cut into small pieces, homogenized and centrifuged at 900 g for one minute. The supernatant was again centrifuged twice, for 20 minutes each time at 900 g. The sediment at each step was discarded. The clear supernatant was centrifuged twice at 12,000 g, 20 minutes each time, to form pellets of a mitochondria-enriched fraction. The fraction was divided into two parts. One part was resuspended in a measured volume of distilled water and sonicated (10 min×2). […] The two extracts were subjected to comprehensive HPTLC and HPLC analyses for detection and quantitation of DBPs and their equivalents. […] One hour after administration the animals were sacrificed and mitochondria from liver were isolated and analyzed as described for Example 6. […] Mobile Phase—Chloroform:Methanol 90:10 Sample application—CAMAG LINOMAT 5 (Automated applicator) Detection—240 nm (CAMAG TLC SCANNER 3) 3-OH-DBP and 3,8-(OH)2-DBP (and their conjugates) were detected in mitochondria of control mice by HPTLC. Administration of DBPs to the animals increased the amount of DBPs and its products in mitochondria as detected by using authentic markers of the two DBPs (Table 2).

COc1c(O)c(C)c(C/C=C(\C)CC/C=C(\C)CC/C=C(\C)CC/C=C(\C)CC/C=C(\C)CC/C=C(\C)CC/C=C(\C)CC/C=C(\C)CC/C=C(\C)CCC=C(C)C)c(O)c1OC [Reduced CoQ10, reference compound]
Regenerated CoQ10 in absence of 3,8-(OH)2-DBP ([1]; autoxidation of CoQH2, pH 8, 20 min): 5.49 µg/mL
Regenerated CoQ10 in absence of 3,8-(OH)2-DBP ([1]; autoxidation of CoQH2, pH 8, 40 min): 72.98 µg/mL
Relative percentage of aberrant metabolites in absence of 3,8-(OH)2-DBP ([2]; pH 8, 0 minutes): 0%
Relative percentage of aberrant metabolites in absence of 3,8-(OH)2-DBP ([2]; pH 8, 40 minutes): 93%
Relative percentage of aberrant metabolites in absence of 3,8-(OH)2-DBP ([2]; pH 8, 80 minutes): 96%
Regenerated CoQ10 in absence of 3,8-(OH)2-DBP ([3]; autoxidation of CoQH2, pH 8, 0 min): 0 µg/mL
Regenerated CoQ10 in absence of 3,8-(OH)2-DBP ([3]; autoxidation of CoQH2, pH 8, 60 min): 184.68 µg/mL
Regenerated CoQ10 in absence of 3,8-(OH)2-DBP ([3]; autoxidation of CoQH2, pH 8, 80 min): 202.28 µg/mL
Regenerated CoQ10 in absence of 3,8-(OH)2-DBP ([3]; autoxidation of CoQH2, pH 8, 100 min): 109.23 µg/mL
Reduced CoQ10 remaining in control ([3]; pH 3, 0 hour): 100.00%
Reduced CoQ10 remaining in control ([3]; pH 3, 48 hour): 57.25%
Reduced CoQ10 remaining in control ([3]; pH 3, 72 hour): 61.95%
Reduced CoQ10 remaining in control ([3]; pH 7, 0 hour): 100.00%
Reduced CoQ10 remaining in control ([3]; pH 7, 48 hour): 7.73%
Reduced CoQ10 remaining in control ([3]; pH 7, 72 hour): 3.70%
Reduced CoQ10 remaining in control ([3]; pH 8, 0 min, methanol): 100.00%
Reduced CoQ10 remaining in control ([3]; pH 8, 40 min, methanol): 79.18%
Reduced CoQ10 remaining in control ([3]; pH 8, 60 min, methanol): 54.09%
Reduced CoQ10 remaining in control ([3]; pH 8, 80 min, methanol): 33.17%
Reduced CoQ10 remaining in control ([3]; pH 8, 100 min, methanol): 20.87%

O=c1oc2cc(O)ccc2c2cc(-c3cc4c(cc3O)c(=O)oc3cc(O)ccc34)c(O)cc12 [3,8-(OH)2-DBP-dimer, 3,3′,8,8′-tetrahydroxy-9,9′-bis-dibenzo-α-pyrone]
Amount in mitochondria after DBP treatment [4]: 28.6 nmol/gm wet wt
